For 19 compounds, T/C results are on record in PubChem BioAssay AID296 (DTP/NCI, 2004).

For this test, the system named is MX-1 breast xenograft, nude mice, tumor weight T/C. The test can be described thus: NCI In Vivo Anticancer Drug Screen. Data for tumor model Human Mammary Carcinoma MX-1 Xenograft (intrarenal inoculation) in NU/NU Swiss (nude) mice. To be noted: endpoint: mean tumor weight change, higher = larger tumour. The method, boiled down: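 Tumor-bearing mice were treated with test compound alongside a vehicle-treated control group. Survival or tumor size was measured, and activity is expressed as the treated-group value divided by the control-group value.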
In general terms: A xenograft is tissue or cells of one species grown in another, often human tumour cells in immunodeficient mice.

[1] abbreviates: dose: 300.0 mg/kg/injection, schedule: Q04DX003 (sc), vehicle: saline with Tween-80.
Where [2] appears, read: dose: 600.0 mg/kg/injection, schedule: Q04DX003 (sc), vehicle: saline with Tween-80.
Setting [3] is: dose: 1200.0 mg/kg/injection, schedule: Q04DX003 (sc), vehicle: saline with Tween-80.
The mark [4] stands for this setting: dose: 2400.0 mg/kg/injection, schedule: Q04DX003 (sc), vehicle: saline with Tween-80.
Where [5] appears, read: dose: 50.0 mg/kg/injection, schedule: Q01DX010 (sc), vehicle: saline.
The mark [6] stands for this setting: dose: 100.0 mg/kg/injection, schedule: Q01DX010 (sc), vehicle: saline.
The mark [7] stands for this setting: dose: 150.0 mg/kg/injection, schedule: Q04DX003 (sc), vehicle: saline with Tween-80.
[8] abbreviates: dose: 200.0 mg/kg/injection, schedule: Q04DX003 (sc), vehicle: saline.
Setting [9] is: dose: 400.0 mg/kg/injection, schedule: Q04DX003 (sc), vehicle: saline.
The mark [10] stands for this setting: dose: 300.0 mg/kg/injection, schedule: Q04DX003 (sc), vehicle: Klucel (hydroxypropylcellulose) (HPC).
[11] abbreviates: dose: 600.0 mg/kg/injection, schedule: Q04DX003 (sc), vehicle: Klucel (hydroxypropylcellulose) (HPC).
The mark [12] stands for this setting: dose: 1200.0 mg/kg/injection, schedule: Q04DX003 (sc), vehicle: Klucel (hydroxypropylcellulose) (HPC).
Setting [13] is: dose: 2400.0 mg/kg/injection, schedule: Q04DX003 (sc), vehicle: Klucel (hydroxypropylcellulose) (HPC).

“And” between values parts separate entries of the source, which are not always exact repeats. Equal values may be shown once. Results filed as inconclusive are left out.

As for `O=C(c1cccnc1)c1cc(-c2ccccn2)c(=O)n2ccccc12`, the T/C is, setting by setting: under setting [1], 66 % of control; under setting [2], 103 % of control; under setting [3], 81 % of control; under setting [4], 120 % of control.
For `O=C1C=CN(C2OC(CO)C(O)C2O)C(=O)C1` (stereo not drawn), the T/C under setting [5] was 92 % of control; the T/C under setting [6] is 41 % of control; the T/C (dose: 200.0 mg/kg/injection, schedule: Q01DX010 (sc), vehicle: saline) is 27 % of control; the T/C (dose: 400.0 mg/kg/injection, schedule: Q01DX010 (sc), vehicle: saline) is 75 % of control.
For the compound `Cc1c(N)nc(C(CC(N)=O)NCC(N)C(N)=O)nc1C(=O)NC(C(=O)NC(C)C(O)CC(=O)NC(C(=O)NC(OC1OC(C)C(N)C(O)C1O)C(O)c1nc(-c2nc(C(=O)NCCCC(N)CC(=O)NCCCNCCCCN)cs2)cs1)C(C)O)C(OC1OC(CO)C(O)C(O)C1OC1OC(CO)C(O)C(OC(N)=O)C1O)c1cnc[nH]1` (stereo not drawn), the T/C (dose: 8.0 mg/kg/injection, schedule: Q04DX003 (sc), vehicle: saline) was 47 % of control and the T/C (dose: 16.0 mg/kg/injection, schedule: Q04DX003 (sc), vehicle: saline) was 40 % of control.
Take `CCOC(=O)c1cn(C)c2c1C(O)=C(C(=O)OC)CC(=O)N2`: the T/C by setting is: under setting [7], 95 % of control; under setting [1], 80 % of control; under setting [2], 85 % of control; under setting [3], 90 % of control.
With `O=C(Nc1ccc(C2=NCCN2)cc1)c1ccc(C(=O)Nc2ccc(C3=NCCN3)cc2)c(Cl)c1`, the T/C runs as follows: (dose: 75.0 mg/kg/injection, schedule: Q04DX003 (sc), vehicle: water) 81 % of control; (dose: 150.0 mg/kg/injection, schedule: Q04DX003 (sc), vehicle: water) 49 % of control; (dose: 300.0 mg/kg/injection, schedule: Q04DX003 (sc), vehicle: water) 21 % of control.
For `CCC1=C[C@H]2CN(CCc3c([nH]c4ccccc34)[C@@](C(=O)OC)(c3cc4c(cc3OC)N(C)[C@H]3[C@@](O)(C(=O)NC)[C@H](OC(C)=O)[C@]5(CC)C=CCN6CC[C@]43[C@@H]65)C2)C1`, the T/C (dose: 1.0 mg/kg/injection, schedule: Q04DX003 (sc), vehicle: water) was 48 % of control and the T/C (dose: 2.0 mg/kg/injection, schedule: Q04DX003 (sc), vehicle: water) is 45 % of control.
For the compound `NC(=O)c1ncn(C2OC(CO)C(O)C2O)n1` (stereo not drawn), the T/C (dose: 225.0 mg/kg/injection, schedule: Q04DX003 (sc), vehicle: saline) was 108 % of control; the T/C (dose: 450.0 mg/kg/injection, schedule: Q04DX003 (sc), vehicle: saline) was 61 % of control; the T/C (dose: 900.0 mg/kg/injection, schedule: Q04DX003 (sc), vehicle: saline) was 45 % of control.
Turning to `C[N+](C)(C)c1ncnc2nc[nH]c12`, the T/C is 57 % of control under setting [5] and 38 % of control under setting [6].
On to `NC1=NCN(C2OC(CO)C(O)C2O)C(=O)N1` (stereo not drawn), for which the T/C is 86 % of control (dose: 12.5 mg/kg/injection, schedule: Q01DX010 (sc), vehicle: saline); 32 % of control and 42 % of control (dose: 25.0 mg/kg/injection, schedule: Q01DX010 (sc), vehicle: saline); 34 % of control (dose: 25.0 mg/kg/injection, schedule: Q04DX003 (sc), vehicle: saline); 3 % of control and 4 % of control under setting [5]; 55 % of control (dose: 75.0 mg/kg/injection, schedule: Q04DX003 (sc), vehicle: saline); 6 % of control under setting [6]. Also, the T/C runs as follows: (dose: 100.0 mg/kg/injection, schedule: Q04DX003 (sc), vehicle: saline) 14 % of control and 30 % of control; under setting [8], 8 % of control; under setting [9], 2 % of control.
For `S=C(Nc1ccc(Cl)c(Cl)c1)N1c2ccccc2-n2cccc2C1c1cccnc1` (stereo not drawn), the T/C was 123 % of control under setting [10], 89 % of control under setting [11], 108 % of control under setting [12] and 108 % of control under setting [13].
For the compound `Nc1ncn(C2OC(CO)C(O)C2O)c(=O)n1` (stereo not drawn), the T/C was 69 % of control (dose: 0.38 mg/kg/injection, schedule: Q01DX010 (sc), vehicle: saline); 58 % of control and 68 % of control (dose: 0.75 mg/kg/injection, schedule: Q01DX010 (sc), vehicle: saline); 25 % of control (dose: 1.5 mg/kg/injection, schedule: Q01DX010 (sc), vehicle: saline); 50 % of control (dose: 2.5 mg/kg/injection, schedule: Q04DX003 (sc), vehicle: saline); 6 % of control and 14 % of control (dose: 20.0 mg/kg/injection, schedule: Q04DX003 (sc), vehicle: saline); 8 % of control (dose: 150.0 mg/kg/injection, schedule: Q04DX003 (sc), vehicle: saline). Moreover, the T/C was 52 % of control under setting [8]; 5 % of control and 7 % of control (dose: 200.0 mg/kg/injection, schedule: Q04DX003 (sc), vehicle: suspension in saline); 7 % of control (dose: 300.0 mg/kg/injection, schedule: Q04DX003 (sc), vehicle: saline); 15 % of control under setting [9]; 2 % of control (dose: 600.0 mg/kg/injection, schedule: Q04DX003 (sc), vehicle: saline); 5 % of control (dose: 800.0 mg/kg/injection, schedule: Q04DX003 (sc), vehicle: saline). Further, the T/C was -29 % of control (dose: 1200.0 mg/kg/injection, schedule: Q04DX003 (sc), vehicle: saline); 2 % of control (dose: 1600.0 mg/kg/injection, schedule: Q04DX003 (sc), vehicle: saline); 15 % of control (dose: 1600.0 mg/kg/injection, schedule: Q04DX003 (sc), vehicle: suspension in saline).
Regarding `O=C(O)CSc1c(Cl)c(=O)oc2ccc(Cl)cc12`, the T/C is, setting by setting: (dose: 75.0 mg/kg/injection, schedule: Q04DX003 (sc), vehicle: Klucel (hydroxypropylcellulose) (HPC)) 87 % of control; (dose: 150.0 mg/kg/injection, schedule: Q04DX003 (sc), vehicle: Klucel (hydroxypropylcellulose) (HPC)) 61 % of control and 75 % of control; under setting [10], 54 % of control and 62 % of control.
Turning to `COc1cc(C[C@H]2c3cc(OC)c(OC)cc3CCN2C)c(Oc2cc3c(cc2OC)-c2c(OC)c(OC)cc4c2[C@H](C3)N(C)CC4)cc1OC`, the T/C was 95 % of control (dose: 100.0 mg/kg/injection, schedule: Q01DX010 (sc), vehicle: saline with Tween-80); 67 % of control (dose: 200.0 mg/kg/injection, schedule: Q01DX010 (sc), vehicle: saline with Tween-80); 75 % of control (dose: 400.0 mg/kg/injection, schedule: Q01DX010 (sc), vehicle: saline with Tween-80); 71 % of control (dose: 800.0 mg/kg/injection, schedule: Q01DX010 (sc), vehicle: saline with Tween-80).
`C[CH2][Sn]([CH2]C)([CH2]C(=O)OC)[CH2]C(=O)OC`: the T/C is 79 % of control (dose: 12.5 mg/kg/injection, schedule: Q04DX003 (sc), vehicle: saline with Tween-80) and 116 % of control (dose: 25.0 mg/kg/injection, schedule: Q04DX003 (sc), vehicle: saline with Tween-80).
With `C=C(C)[C@H]1CN[C@H](C(=O)O)[C@H]1CC(=O)O`, the T/C is 75 % of control (dose: 20.0 mg/kg/injection, schedule: Q04DX003 (sc), vehicle: suspension in saline) and 36 % of control (dose: 40.0 mg/kg/injection, schedule: Q04DX003 (sc), vehicle: suspension in saline).
With `CC/C(=C(/CC)c1ccc(O)cc1)c1ccc(O)cc1`, the T/C was 66 % of control (dose: 75.0 mg/kg/injection, schedule: Q04DX003 (sc), vehicle: saline with Tween-80); 47 % of control under setting [7]; 48 % of control under setting [1]; 55 % of control under setting [2].
As for `CNc1cccnc1/C=N/NC(N)=S`, the T/C by setting is: under setting [1], 114 % of control; under setting [2], 61 % of control; under setting [3], 55 % of control; under setting [4], 77 % of control.
In the case of `Cc1nc(C(Cl)(Cl)Cl)[nH]c(=O)c1SCCO`, the T/C is 162 % of control (dose: 150.0 mg/kg/injection, schedule: Q04DX003 (ip), vehicle: distilled water + alcohol); 195 % of control (dose: 300.0 mg/kg/injection, schedule: Q04DX003 (ip), vehicle: distilled water + alcohol); 50 % of control (dose: 600.0 mg/kg/injection, schedule: Q04DX003 (ip), vehicle: distilled water + alcohol).
Regarding `CC(C)(C)C1CCCCC1`, the T/C under setting [10] was 101 % of control, the T/C under setting [11] was 89 % of control, the T/C under setting [12] is 75 % of control and the T/C under setting [13] was 65 % of control.
